How the values were obtained:
[1] = biological target: human TYK2 (JH2domain-pseudokinase) (Homo sapiens (Human), UniProt P29597); test: TYK2 JH2 Domain Binding Assay (KINOMEscan); conditions: 11-point 3-fold dilution, top concentration 30,000 nM, duplicate; read-out: hTYK2_JH2_Binding (Kd; nM)
Procedure, shortened: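 KINOMEscan competition binding: HEK293-expressed NFkB-fused TYK2 JH2 (G556–D888), DNA-tagged, against immobilized ligand beads, 1 h shaking at room temperature, 0.9% DMSO. Bound kinase quantified by qPCR.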

[2] = test system: IL-12 induced STAT4 phosphorlyation mediated by TYK2/JAK2; test: IL-12 Induced pSTAT4 in Human PBMC; type: cell-based; conditions: 1.7 ng/mL IL-12 for 30 minutes
Procedure, shortened: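 pSTAT4 and total STAT4 quantified by MSD in lysates of cryopreserved human PBMC after 30-minute stimulation with 1.7 ng/mL IL-12 (final). Compound was added 1 hr beforehand at 37° C, 0.1% DMSO final.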

human TYK2 (JH2domain-pseudokinase), sequence (P29597 556-888): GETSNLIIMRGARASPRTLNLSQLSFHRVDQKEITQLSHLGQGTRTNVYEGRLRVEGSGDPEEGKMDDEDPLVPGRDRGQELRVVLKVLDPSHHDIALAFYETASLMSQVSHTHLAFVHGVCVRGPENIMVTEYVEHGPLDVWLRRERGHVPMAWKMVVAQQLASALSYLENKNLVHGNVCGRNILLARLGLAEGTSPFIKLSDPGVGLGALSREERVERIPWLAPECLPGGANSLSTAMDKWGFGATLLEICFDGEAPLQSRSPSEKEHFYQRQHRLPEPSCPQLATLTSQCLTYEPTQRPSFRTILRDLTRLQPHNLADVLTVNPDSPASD

With `CNc1cc(Nc2cccn([C@H]3[C@@H]4COC[C@@H]43)c2=O)nc2c(C(=O)NC3CCC3)cnn12` [Compound I-142] the Kd [1] was under 0.2 nM and the IC50 [2] was under 0.1 µM.
Compound `CNc1cc(Nc2cccn([C@H]3C[C@H](OC)C3)c2=O)nc2c(C(=O)N[C@@H]3C[C@@H]3F)cnn12` [Compound I-8, N-((1R,2S)-2-Fluorocyclopropyl)-5-((1-((1r,3R)-3-methoxycyclobutyl)-2-oxo-1,2-dihydropyridin-3-yl)amino)-7-(methylamino)pyrazolo[5-a]pyrimidine-3-carboxamide] has a Kd [1] of under 0.2 nM and an IC50 ([2]; 0.5 h) of under 0.1 µM.
Work on `O=C(N[C@@H]1C[C@@H]1F)c1cnn2c3c(c(Nc4cccc5ocnc45)nc12)OCCN3` [Compound I-752] yielded a Kd [1] of under 0.2 nM and an IC50 [2] of under 0.1 µM.
`CNc1cc(Nc2cccn([C@H]3C[C@H](OC)C3)c2=O)nc2c(C(=O)NC3CCC3)cnn12` [Compound I-141] gave a Kd [1] of under 0.2 nM and an IC50 [2] of under 0.1 µM.
`CNc1cc(Nc2cccn(C(C)C)c2=O)nc2c(C(=O)N[C@@H]3CC[C@@]3(C)O)cnn12` [Compound I-341] showed a Kd [1] of under 0.2 nM and an IC50 [2] of under 0.1 µM.
With `CNc1cc(-c2cnc3n([C@@H]4COC[C@H]4O)cccc2-3)nc2c(C(=O)NC3CC3)cnn12` [Compound I-817] the Kd [1] was under 0.2 nM and the IC50 [2] was under 0.1 µM.
With `CNc1cc(Nc2cccn(-c3ocnc3C)c2=O)nc2c(C(=O)NC3CC[C@@H]3F)cnn12` (stereo partly shown) [Compound I-185] the Kd [1] was under 0.2 nM and the IC50 [2] was under 0.1 µM.
Compound `CNc1cc(-c2cnc3n([C@H]4COC[C@@H]4O)cccc2-3)nc2c(C(=O)NC3CC3)cnn12` [Compound I-816] has a Kd [1] of under 0.2 nM and an IC50 [2] of under 0.1 µM.
Work on `CO[C@@H]1CC[C@H]1NC(=O)c1cnn2c(N)cc(Nc3cccn(-c4ccccn4)c3=O)nc12` [Compound I-247] yielded a Kd [1] of over 10 nM and an IC50 [2] of 0.1 to 0.5 µM.
In the case of `CNc1cc(-c2cn([C@H]3C[C@@H](COC)C3)c3ncccc23)nc2c(C(=O)N[C@H]3CC[C@@H]3OC)cnn12` [Compound I-933], the Kd [1] is reported as under 0.2 nM and the IC50 [2] is reported as under 0.1 µM.
“N-((cis-1,2)-2-Hydroxycyclobutyl)-5-(1-((1s,3R)-3-hydroxycyclobutyl)-1H-pyrrolo[2,3-b]pyridin-3-yl)-7-(methylamino)pyrazolo[1,5-a]pyrimidine-3-carboxamide [Compound I-111]” showed a Kd [1] of under 0.2 nM and an IC50 [2] of 0.1 to 0.5 µM.
With `O=C(NC1CC[C@@H]1F)c1cnn2c3c(c(-c4cn([C@H]5C[C@H](O)C5)c5ncccc45)nc12)OCCN3` (stereo partly shown) [Compound I-756] the Kd [1] was under 0.2 nM and the IC50 [2] was under 0.1 µM.
With `CNc1cc(Nc2cccn(C3CC(F)(F)C3)c2=O)nc2c(C(=O)N[C@H]3CC[C@H](O)C3)cnn12` [Compound I-41, 5-((1-(3,3-Difluorocyclobutyl)-2-oxo-1,2-dihydropyridin-3-yl)amino)-N-((1S,3S)-3-hydroxycyclopentyl)-7-(methylamino)pyrazolo[1,5-a]pyrimidine-3-carboxamide] the Kd [1] was 0.2 to 1 nM and the IC50 ([2]; 0.5 h) was under 0.1 µM.
Work on `CNc1cc(-c2cn([C@H]3[C@@H]4COC[C@@H]43)c3ncccc23)nc2c(C(=O)N[C@@H]3CC[C@H]3O)cnn12` [Compound I-960] yielded a Kd [1] of under 0.2 nM and an IC50 [2] of 0.1 to 0.5 µM.
Compound `CNc1cc(-c2cnc3n([C@@H]4CCOC[C@H]4O)cccc2-3)nc2c(C(=O)NC3CC3)cnn12` [Compound I-818, N-Cyclopropyl-5-(7-((3S,4R)-3-hydroxytetrahydro-2H-pyran-4-yl)-7H-pyrrolo[2,3-b]pyridin-3-yl)-7-(methylamino)pyrazolo[1,5-a]pyrimidine-3-carboxamide] has a Kd [1] of under 0.2 nM and an IC50 ([2]; 0.5 h) of under 0.1 µM.
`CC(C)n1cc(-c2nc3c(C(=O)N[C@H]4CC[C@H]4O)cnn3c3c2OCCN3)c2cccnc21` [Compound I-754] was tested, and the Kd [1] was under 0.2 nM and the IC50 [2] was under 0.1 µM.
`CNc1cc(Nc2cccn([C@H]3C[C@@H]3F)c2=O)nc2c(C(=O)N[C@H]3CC[C@@H]3OC)cnn12` [Compound I-49, 5-((1-((1S,2S)-2-Fluorocyclopropyl)-2-oxo-1,2-dihydropyridin-3-yl)amino)-N-((1S,2S)-2-methoxycyclobutyl)-7-(methylamino)pyrazolo[1,5-a]pyrimidine-3-carboxamide] gave a Kd [1] of under 0.2 nM and an IC50 ([2]; 0.5 h) of under 0.1 µM.
Work on `CNc1cc(-c2cnc3n([C@@H]4CCOC[C@H]4O)cccc2-3)nc2c(C(=O)N[C@@H]3C[C@@H]3F)cnn12` [Compound I-824] yielded a Kd [1] of under 0.2 nM and an IC50 [2] of under 0.1 µM.
In the case of `CNc1cc(Nc2cccn(C3COC3)c2=O)nc2c(C(=O)NC3CC[C@@H]3F)cnn12` (stereo partly shown) [Compound I-163], the Kd [1] is reported as under 0.2 nM and the IC50 [2] is reported as under 0.1 µM.
`CNc1cc(Nc2cccn([C@H]3CC[C@H](OC)CC3)c2=O)nc2c(C(=O)N[C@@H]3C[C@H]3OC)cnn12` [Compound I-31, 5-((1-((1r,4R)-4-Methoxycyclohexyl)-2-oxo-1,2-dihydropyridin-3-yl)amino)-N-((1R,2R)-2-methoxycyclopropyl)-7-(methylamino)pyrazolo[1,5-a]pyrimidine-3-carboxamide] was tested, and the Kd [1] was under 0.2 nM and the IC50 [2] was under 0.1 µM.
Compound `O=C(N[C@H]1CC[C@@H]1F)c1cnn2c3c(c(-c4cn([C@H]5C[C@H](O)C5)c5ncccc45)nc12)OCCN3` [Compound I-757] has a Kd [1] of under 0.2 nM and an IC50 [2] of under 0.1 µM.
Work on `CO[C@H]1CC[C@@H]1NC(=O)c1cnn2c(N)cc(Nc3cccn(-c4ccccn4)c3=O)nc12` [Compound I-246] yielded a Kd [1] of under 0.2 nM and an IC50 [2] of 0.1 to 0.5 µM.
For `CC(C)n1cccc(Nc2nc3c(C(=O)NC4CCC4(F)F)cnn3c3c2OCCN3)c1=O` (stereo not shown) [Compound I-765], the Kd [1] was under 0.2 nM and the IC50 [2] was under 0.1 µM.
In the case of `CNc1cc(-c2cn([C@H]3C[C@@H](O)C3)c3ncccc23)nc2c(C(=O)N[C@@H]3C[C@@H]3F)cnn12` [Compound I-500], the Kd [1] is reported as under 0.2 nM and the IC50 [2] is reported as 0.1 to 0.5 µM.
`CNc1cc(Nc2cccn(C3CCOCC3)c2=O)nc2c(C(=O)NC3CCC3)cnn12` [Compound I-143] was tested, and the Kd [1] was under 0.2 nM and the IC50 [2] was under 0.1 µM.
`CNc1cc(-c2cn(C3COC3)c3ncccc23)nc2c(C(=O)NC3CC[C@@H]3F)cnn12` (stereo partly shown) [Compound I-507] was tested, and the Kd [1] was under 0.2 nM and the IC50 [2] was under 0.1 µM.
`CO[C@@H]1CCC1NC(=O)c1cnn2c3c(c(Nc4cccn([C@H]5[C@@H]6COC[C@@H]65)c4=O)nc12)OCCN3` (stereo partly shown) [Compound I-762] showed a Kd [1] of under 0.2 nM and an IC50 [2] of under 0.1 µM.
Work on `CNc1cc(Nc2cccn(-c3ocnc3C)c2=O)nc2c(C(=O)NC3CCC3)cnn12` [Compound I-144] yielded a Kd [1] of under 0.2 nM and an IC50 [2] of under 0.1 µM.
With `O=C(NC1CCC1(F)F)c1cnn2c3c(c(Nc4cccn([C@H]5[C@@H]6COC[C@@H]65)c4=O)nc12)OCCN3` (stereo partly shown) [Compound I-768] the Kd [1] was under 0.2 nM and the IC50 [2] was under 0.1 µM.
Work on `CNc1cc(Nc2cccn(C3COC3)c2=O)nc2c(C(=O)NC3CC[C@H]3F)cnn12` (stereo partly shown) [Compound I-160] yielded a Kd [1] of under 0.2 nM and an IC50 [2] of under 0.1 µM.
In the case of `CNc1cc(-c2cnc3n(C4CCOCC4)cccc2-3)nc2c(C(=O)NC3CC[C@@H]3OC)cnn12` (stereo in doubt) [Compound I-985, N-(2-methoxycyclobutyl)-7-(methylamino)-5-(7-(tetrahydro-2H-pyran-4-yl)-7H-pyrrolo[2,3-b]pyridin-3-yl)pyrazolo[1,5-a]pyrimidine-3-carboxamide], the Kd [1] is reported as under 0.2 nM and the IC50 ([2]; 0.5 h) is reported as under 0.1 µM.
Compound `CNc1cc(-c2cnc3n(C4CCOCC4)cccc2-3)nc2c(C(=O)N[C@@H]3CC[C@H]3OC)cnn12` [Compound I-1015] has a Kd [1] of under 0.2 nM and an IC50 [2] of 0.5 to 1 µM.

From US11414431B2, “Substituted pyrazolo[1,5-a]pyrimidines as TYK2 inhibitors” (Nimbus Lakshmi, Inc., priority 2018, dated 2022)
